Numbers after ± are expanded uncertainties.
Assays:
[1] = refractive index (Na D-line) (dimensionless); xn = mol fraction of the nth substance listed; conditions: 101.3 kPa, Liquid, Standard Abbe refractometry
[2] = xn = mol fraction of the nth substance listed; conditions: 101.3 kPa, Liquid; for speed of sound: Sing-around technique in a fixed-path interferometer; for mass density: Vibrating tube method

CCCCn1cc[n+](C)c1.COS(=O)(=O)[O-] [1-butyl-3-methylimidazolium methyl sulfate] + CCCO
Conditions | mass density, [2] [kg/m3] | refractive index, [1] | speed of sound, [2] [m/s]
298.15 K, x1 = 0.0482 | 852.432 ± 0.25 | 1.39591 ± 0.00033 | 1242.8 ± 0.89
298.15 K, x1 = 0.0965 | 896.455 ± 0.22 | 1.40632 ± 0.00034 | 1276 ± 0.99
298.15 K, x1 = 0.1937 | 967.583 ± 0.26 | 1.42298 ± 0.00037 | 1338.1 ± 1.2
298.15 K, x1 = 0.2929 | 1023.11 ± 0.37 | 1.43588 ± 0.0004 | 1394.2 ± 1.4
298.15 K, x1 = 0.3903 | 1066.53 ± 0.56 | 1.44583 ± 0.00043 | 1443.9 ± 1.6
298.15 K, x1 = 0.4958 | 1104.3 ± 0.81 | 1.45448 ± 0.00047 | 1491.7 ± 1.9
298.15 K, x1 = 0.59 | 1132.04 ± 1.1 | 1.46078 ± 0.0005 | 1529.8 ± 2.1
298.15 K, x1 = 0.6907 | 1156.89 ± 1.4 | 1.46636 ± 0.00054 | 1566.3 ± 2.4
298.15 K, x1 = 0.7981 | 1179.34 ± 1.9 | 1.47134 ± 0.00059 | 1601.1 ± 2.6
298.15 K, x1 = 0.8932 | 1196.47 ± 2.3 | 1.47515 ± 0.00063 | 1629 ± 2.8
298.15 K, x1 = 0.951 | 1205.24 ± 2.6 | 1.4776 ± 0.00065 | 1643.1 ± 3
298.15 K, x1 = 1 | 1212.06 ± 2.8 | 1.47824 ± 0.00068 | 1654.6 ± 3.1
303.15 K, x1 = 0.0482 | 848.503 ± 0.25 | 1.39407 ± 0.00033 | 1227 ± 0.89
303.15 K, x1 = 0.0965 | 892.596 ± 0.22 | 1.40459 ± 0.00034 | –
303.15 K, x1 = 0.1937 | 963.817 ± 0.26 | 1.42138 ± 0.00037 | 1323.8 ± 1.2
303.15 K, x1 = 0.2929 | 1019.43 ± 0.37 | 1.43433 ± 0.0004 | 1380.5 ± 1.4
303.15 K, x1 = 0.3903 | 1062.93 ± 0.55 | 1.44433 ± 0.00043 | 1430.6 ± 1.6
303.15 K, x1 = 0.4958 | 1100.77 ± 0.81 | 1.45302 ± 0.00047 | 1478.8 ± 1.9
303.15 K, x1 = 0.59 | 1128.56 ± 1.1 | 1.45937 ± 0.0005 | 1517.2 ± 2.1
303.15 K, x1 = 0.6907 | 1153.44 ± 1.4 | 1.46499 ± 0.00054 | 1553.9 ± 2.4
303.15 K, x1 = 0.7981 | 1175.92 ± 1.9 | 1.46997 ± 0.00059 | 1588.9 ± 2.6
303.15 K, x1 = 0.8932 | 1192.93 ± 2.3 | 1.47378 ± 0.00063 | 1616.9 ± 2.8
303.15 K, x1 = 0.951 | 1201.87 ± 2.6 | 1.47628 ± 0.00065 | 1630.9 ± 3
303.15 K, x1 = 1 | 1208.7 ± 2.8 | 1.47704 ± 0.00068 | 1642.2 ± 3.1
308.15 K, x1 = 0.0482 | 844.545 ± 0.25 | 1.39212 ± 0.00033 | 1211.1 ± 0.88
308.15 K, x1 = 0.0965 | 888.716 ± 0.22 | 1.40276 ± 0.00034 | 1245.5 ± 0.98
308.15 K, x1 = 0.1937 | 960.044 ± 0.26 | 1.41966 ± 0.00037 | 1309.3 ± 1.2
308.15 K, x1 = 0.2929 | 1015.75 ± 0.36 | 1.43273 ± 0.0004 | 1366.6 ± 1.4
308.15 K, x1 = 0.3903 | 1059.34 ± 0.55 | 1.4428 ± 0.00043 | 1417.3 ± 1.6
308.15 K, x1 = 0.4958 | 1097.25 ± 0.8 | 1.45154 ± 0.00047 | 1465.8 ± 1.9
308.15 K, x1 = 0.59 | 1125.08 ± 1.1 | 1.45793 ± 0.0005 | 1504.5 ± 2.1
308.15 K, x1 = 0.6907 | 1150 ± 1.4 | 1.46358 ± 0.00054 | 1541.4 ± 2.4
308.15 K, x1 = 0.7981 | 1172.52 ± 1.8 | 1.46856 ± 0.00059 | 1576.5 ± 2.6
308.15 K, x1 = 0.8932 | 1189.33 ± 2.3 | 1.47238 ± 0.00063 | 1604.7 ± 2.8
308.15 K, x1 = 0.951 | 1198.5 ± 2.6 | 1.47491 ± 0.00065 | 1618.7 ± 3
308.15 K, x1 = 1 | 1205.35 ± 2.8 | 1.47577 ± 0.00068 | 1630 ± 3.1
313.15 K, x1 = 0.0482 | 840.564 ± 0.25 | 1.39019 ± 0.00033 | 1195.2 ± 0.88
313.15 K, x1 = 0.0965 | 884.815 ± 0.23 | 1.4009 ± 0.00034 | 1230.2 ± 0.98
313.15 K, x1 = 0.1937 | 956.26 ± 0.26 | 1.41794 ± 0.00037 | 1294.9 ± 1.2
313.15 K, x1 = 0.2929 | 1012.08 ± 0.36 | 1.43111 ± 0.0004 | 1352.8 ± 1.4
313.15 K, x1 = 0.3903 | 1055.75 ± 0.54 | 1.44126 ± 0.00043 | 1404 ± 1.6
313.15 K, x1 = 0.4958 | 1093.74 ± 0.8 | 1.45008 ± 0.00047 | 1453 ± 1.9
313.15 K, x1 = 0.59 | 1121.62 ± 1.1 | 1.45649 ± 0.0005 | 1492 ± 2.1
313.15 K, x1 = 0.6907 | 1146.58 ± 1.4 | 1.46215 ± 0.00054 | 1529.1 ± 2.4
313.15 K, x1 = 0.7981 | 1169.13 ± 1.8 | 1.46715 ± 0.00059 | 1564.4 ± 2.6
313.15 K, x1 = 0.8932 | 1185.78 ± 2.3 | 1.4709 ± 0.00063 | 1592.5 ± 2.8
313.15 K, x1 = 0.951 | 1195.15 ± 2.5 | 1.47354 ± 0.00065 | 1606.6 ± 3
313.15 K, x1 = 1 | 1202.01 ± 2.8 | 1.47443 ± 0.00068 | 1617.9 ± 3.1

— the NIST ThermoML archive (doi:10.1016/j.jct.2012.08.030)
